# Where “and” joins values, the source holds several entries; their conditions need not be identical. Identical values can stand only once. Peptide text beside a SMILES is read from it.
# What was measured:
# [1] = Hemodynamic studies and total toxicity score after LMWH reversal at different rates, canine study; settings: dogs, Logiparin
# Experimental: (§1) The anticoagulation-reversing agents were administered rapidly over 10 seconds to maximize hemodynamic effects or more slowly over a 3 minute interval. Changes in LMWH anticoagulation occurring from metabolism alone were determined in a separate group of dogs not given any reversal agent.
# Hemodynamic studies were conducted by measuring mean arterial pressure (MAP) in mm Mercury, maximum percent changes in cardiac output (CO) and systemic oxygen consumption (VO2), and heart rate (HR) in beats per minute. Measurements and calculations were made at baseline, before LMWH administration, 3 minutes before reversal, every 30 seconds for 5 minutes after reversal, and at 10, 20, and 30 minutes after reversal.
# (§2) TTS were developed that reflected maximum declines in each of four parameters (MAP, CO, VO2 and HR) over the first 5 minutes after reversal in the same manner as described hereinabove.
# [2] = Platelet count, leukocyte count and bleeding time after LMWH reversal at different rates, canine study; type: in vivo, dogs
# Experimental: as §1
# [3] = tested on: LMWH (Enoxaparin); assay: Factor Xa and IIa reversal after LMWH Enoxaparin, canine study; type: in vivo; settings: dogs, 3 min
# Experimental: Similar studies were conducted to assess the ability of the protamine-like peptide analogs described in this section to reverse the anticoagulation effects of the LMWH, Enoxaparin. FIG. 5a through FIG. 5d are graphical representations of LMWH anticoagulation activities achieved by n-protamine (Protamine [+21]), and compounds [+18BE], [+18KDEL], and [+18RGD] plotted as a percent of reversal against time in minutes. […] Referring to FIG. 5c, compound [+18RGD] dramatically outperforms n-protamine in reversing the heparin antifactor Xa activity of Enoxaparin.
# [4] = Hemodynamic studies and total toxicity score after standard heparin reversal at different rates, dogs
# Experimental: Hemodynamic studies were conducted by measuring mean arterial pressure (MAP) in mm Mercury, maximum percent changes in cardiac output (CO) and systemic oxygen consumption (VO2), and heart rate (HR) in beats per minute. Measurements and calculations were made at baseline, before LMWH administration, 3 minutes before reversal, every 30 seconds for 5 minutes after reversal.
# as §2
# [5] = tested on: standard, unfractionated heparin; assay: Factor Xa and IIa reversal after standard heparin, cell adhesion ligand analogs, canine study; type: in vivo; settings: dogs, 3 min post administration
# Experimental: Anticoagulation reversal was assessed by a number of standard coagulation tests performed upon samples of venous blood in the manner described hereinabove. Measurements were made 3 minutes prior to heparin reversal (baseline) and 3 minutes, 10 minutes, and 30 minutes post-administration of the heparin reversal agent. […] Referring to FIGS. 4a through 4d, compound [+18RGD] performs as well, or better, than n-protamine in the standard coagulation tests performed in these studies.
# [6] = tested on: LMWH (LHN-1, Logiparin); assay: Percent reversal of LMWH anticoagulation, agents administered at different rates, canine study; type: in vivo, dogs
# Experimental: Anticoagulation reversal was assessed by a number of standard coagulation tests performed upon samples of venous blood in the manner described hereinabove. Measurements were made 3 minutes prior to heparin reversal (baseline) and 3 minutes, 10 minutes, and 30 minutes post-administration of the heparin reversal agent.
# [7] = Maximum hemodynamic changes and total toxicity score after Enoxaparin reversal, canine study; settings: dogs, agent over 10 seconds
# Experimental: (§3) Seven female dogs (mean weight 15-20 kg) received intravenous standard, unfractionated heparin (150 IU/kg IV) or LMWH (Enoxaparin, Rhone-Poulac, France; 100 IU/kg factor Xa activity) followed by reversal with commercial salmine protamine (n-protamine purchased from Eli Lilly, Indianapolis, Ind., 1.5 mg/kg (100 IU/mg) IV) or an anticoagulation-reversing agent which is a protamine-like peptide variant identified hereinbelow. In these studies, the anticoagulation-reversing agents were administered over a 10 second interval to maximize the hemodynamic effects.
# [8] = Maximum hemodynamic changes and total toxicity score after standard heparin reversal, cell adhesion ligand analogs, canine study; settings: dogs, agent over 10 seconds
# Experimental: In these studies, the anticoagulation-reversing agents were administered over a 10 second interval to maximize the hemodynamic effects.
# Hemodynamic studies were conducted by measuring mean blood pressure (Mean BP) in mm Mercury, maximum percent changes in cardiac output (CO) and systemic oxygen consumption (VO2), and heart rate (HR) in beats per minute. Measurements and calculations were made at baseline, before administration of standard, unfractionated heparin, 3 minutes before reversal, every 30 seconds for 5 minutes after reversal.
# Total toxicity scores (TTS) were developed in accordance with the method described hereinabove that reflected maximum declines in each of four parameters (MAP, CO, VO2 and HR) over the first 5 minutes after reversal.
# [9] = Percent change in platelet count after Enoxaparin reversal, canine study; type: in vivo; settings: dogs, agent over 10 seconds
# Experimental: as §3
# [10] = Percent change in platelet count after standard heparin reversal, cell adhesion ligand analogs, canine study; type: in vivo; settings: dogs, agent over 10 seconds
# Experimental: In addition to hemodynamic changes, Table 15 lists the percent change in platelet count following administration of n-protamine and the selected variants, as well as the factor Xa and factor IIa reversal, as a percent change at 3 minutes post administration of the compound.
# [11] = tested on: standard heparin; assay: Percent reversal of standard heparin anticoagulation by peptide [+18BE] administered at different rates, dogs; type: in vivo
# [12] = dogs, Logiparin, administered over 10 sec
# [13] = dogs, Logiparin, administered over 3 min
# [14] = administered over 10 sec, 3 min
# [15] = administered over 10 sec, 10 min
# [16] = administered over 10 sec, 30 min
# [17] = administered over 3 min, 10 min
# [18] = administered over 3 min, 30 min
structure (smiles),measurement,setting,value
"CC(=O)N[C@@H](CCC(=O)O)C(=O)N[C@@H](C)C(=O)N[C@@H](C)C(=O)N[C@@H](CCCCN)C(=O)N[C@@H](CCCCN)C(=O)N[C@@H](C)C(=O)N[C@@H](C)C(=O)N[C@@H](CCCCN)C(=O)N[C@@H](CCCCN)C(=O)N[C@@H](C)C(=O)N[C@@H](CCCCN)C(=O)N[C@@H](CCCCN)C(=O)N[C@@H](C)C(=O)N[C@@H](C)C(=O)N[C@@H](CCCCN)C(=O)N[C@@H](CCCCN)C(=O)N[C@@H](C)C(=O)N[C@@H](CCCCN)C(=O)N[C@@H](CCCCN)C(=O)N[C@@H](C)C(=O)N[C@@H](C)C(=O)N[C@@H](CCCCN)C(=O)N[C@@H](CCCCN)C(=O)N[C@@H](C)C(=O)N[C@@H](CCCCN)C(=O)N[C@@H](CCCCN)C(=O)N[C@@H](C)C(=O)N[C@@H](C)C(=O)N[C@@H](CCCCN)C(=O)N[C@@H](CCCCN)C(=O)N[C@@H](C)C(=O)N[C@@H](CCCCN)C(=O)N[C@@H](CCCCN)C(N)=O [[+18BE], acetyl-EA2 (K2 A2 K2 A)4 K2 amide] (Ac-EAAKKAAKKAKKAAKKAKKAAKKAKKAAKKAKK-NH2)",Total Toxicity Score,[1]; administered over 10 sec,-2.3 ± 3.6
same,ΔCO,[1]; administered over 10 sec,-11%
same,ΔHr,[1]; administered over 10 sec,-13 beats per minute
same,ΔMAP,[1]; administered over 10 sec,-8 mm Mercury
same,ΔVO2,[1]; administered over 10 sec,-12%
same,Total Toxicity Score,[1]; administered over 3 min,-2.2 ± 1.7
same,ΔCO,[1]; administered over 3 min,-7%
same,ΔHr,[1]; administered over 3 min,-5 beats per minute
same,ΔMAP,[1]; administered over 3 min,0 mm Mercury
same,ΔVO2,[1]; administered over 3 min,-10%
same,Maximal decline in leukocyte count,[2]; [12],-1%
same,Maximal thrombocytopenia,[2]; [12],-44%
same,Maximal decline in leukocyte count,[2]; [13],-7%
same,Maximal thrombocytopenia,[2]; [13],-49%
same,thrombocytopenia (platelet count change),"[2]; dogs, Logiparin, by 10 minutes, administered over a 3 minute interval",-8%
same,platelet count rebound,"[2]; dogs, Logiparin, by 30 minutes, administered over a 3 minute interval",+35%
same,bleeding time,"[2]; selected animals, given over a 3 minute interval",≤ 8 min
same,IIa Reversal,[3],88%
same,Xa Reversal,[3],40%
same,Total Toxicity Score,[4]; administered over 10 sec,-2.14 ± 0.40
same,ΔCO,[4]; administered over 10 sec,-9%
same,ΔHR,[4]; administered over 10 sec,-8 beats per minute
same,ΔMAP,[4]; administered over 10 sec,-1 mm Mercury
same,ΔVO2,[4]; administered over 10 sec,-9%
same,Total Toxicity Score,[4]; administered over 3 min,-1.96 ± 0.55
same,ΔCO,[4]; administered over 3 min,-17%
same,ΔHR,[4]; administered over 3 min,-8 beats per minute
same,ΔMAP,[4]; administered over 3 min,1 mm Mercury
same,ΔVO2,[4]; administered over 3 min,-10%
same,IIa Reversal,[5],100%
same,Xa Reversal,[5],99%
same,"Percent reversal of LMWH anticoagulation, FNa",[6]; [14],99%
same,"Percent reversal of LMWH anticoagulation, FXa",[6]; [14],73%
same,"Percent reversal of LMWH anticoagulation, TCT",[6]; [14],100%
same,"Percent reversal of LMWH anticoagulation, ACT",[6]; [15],78%
same,"Percent reversal of LMWH anticoagulation, FNa",[6]; [15],83%
same,"Percent reversal of LMWH anticoagulation, FXa",[6]; [15],51%
same,"Percent reversal of LMWH anticoagulation, TCT",[6]; [15],95%
same,"Percent reversal of LMWH anticoagulation, ACT",[6]; [16],81%
same,"Percent reversal of LMWH anticoagulation, FNa",[6]; [16],79%
same,"Percent reversal of LMWH anticoagulation, FXa",[6]; [16],59%
same,"Percent reversal of LMWH anticoagulation, TCT",[6]; [16],95%
same,"Percent reversal of LMWH anticoagulation, FNa","[6]; administered over 3 min, 3 min",94%
same,"Percent reversal of LMWH anticoagulation, FXa","[6]; administered over 3 min, 3 min",91%
same,"Percent reversal of LMWH anticoagulation, TCT","[6]; administered over 3 min, 3 min",100%
same,"Percent reversal of LMWH anticoagulation, ACT",[6]; [17],95%
same,"Percent reversal of LMWH anticoagulation, FNa",[6]; [17],99%
same,"Percent reversal of LMWH anticoagulation, FXa",[6]; [17],68%
same,"Percent reversal of LMWH anticoagulation, TCT",[6]; [17],100%
same,"Percent reversal of LMWH anticoagulation, ACT",[6]; [18],97%
same,"Percent reversal of LMWH anticoagulation, FNa",[6]; [18],84%
same,"Percent reversal of LMWH anticoagulation, FXa",[6]; [18],60%
same,"Percent reversal of LMWH anticoagulation, TCT",[6]; [18],99%
same,"Percent reversal of LMWH anticoagulation, ACT","[6]; dogs, Logiparin, agent administered over 10 sec, 3 min post-administration",65%
same,"Percent reversal of LMWH anticoagulation, ACT","[6]; dogs, Logiparin, agent administered over 3 min, 3 min post-administration",89%
same,"Maximum hemodynamic change, Mean BP","[7]; Enoxaparin 100 IU/kg, 5 minutes",-1 mm Mercury
same,Total Toxicity Score (TTS),[7]; Enoxaparin,-3.89 and -3.89 ± 2.37
same,"Maximum hemodynamic change, CO","[7]; Enoxaparin, 5 minutes",-5%
same,"Maximum hemodynamic change, HR","[7]; Enoxaparin, 5 minutes",-4 beats/min
same,"Maximum hemodynamic change, VO2","[7]; Enoxaparin, 5 minutes",-6%
same,"Maximum hemodynamic change, Mean BP","[8]; standard heparin 150 IU/kg IV, 5 minutes",-1 mm Mercury
same,"Maximum hemodynamic change, CO","[8]; standard heparin, 5 minutes",-9%
same,"Maximum hemodynamic change, HR","[8]; standard heparin, 5 minutes",-8 beats/min
same,"Maximum hemodynamic change, VO2","[8]; standard heparin, 5 minutes",-9%
same,Total Toxicity Score,[8]; standard unfractionated heparin,-2.41 ± 0.47
same,Platelet (percent change in platelet count),[9],-35%
same,Platelet (percent change in platelet count),[10],-46%
same,"Percent reversal of standard heparin anticoagulation, FNa",[11]; [14],100%
same,"Percent reversal of standard heparin anticoagulation, FXa",[11]; [14],99%
same,"Percent reversal of standard heparin anticoagulation, TCT",[11]; [14],100%
same,"Percent reversal of standard heparin anticoagulation, ACT",[11]; [15],98%
same,"Percent reversal of standard heparin anticoagulation, FNa",[11]; [15],99%
same,"Percent reversal of standard heparin anticoagulation, FXa",[11]; [15],95%
same,"Percent reversal of standard heparin anticoagulation, TCT",[11]; [15],98%
same,"Percent reversal of standard heparin anticoagulation, ACT",[11]; [16],96%
same,"Percent reversal of standard heparin anticoagulation, FNa",[11]; [16],100%
same,"Percent reversal of standard heparin anticoagulation, FXa",[11]; [16],97%
same,"Percent reversal of standard heparin anticoagulation, TCT",[11]; [16],98%
same,"Percent reversal of standard heparin anticoagulation, FNa","[11]; administered over 3 min, 3 min",99%
same,"Percent reversal of standard heparin anticoagulation, FXa","[11]; administered over 3 min, 3 min",99%
same,"Percent reversal of standard heparin anticoagulation, TCT","[11]; administered over 3 min, 3 min",100%
same,"Percent reversal of standard heparin anticoagulation, ACT",[11]; [17],98%
same,"Percent reversal of standard heparin anticoagulation, FNa",[11]; [17],98%
same,"Percent reversal of standard heparin anticoagulation, FXa",[11]; [17],97%
same,"Percent reversal of standard heparin anticoagulation, TCT",[11]; [17],100%
same,"Percent reversal of standard heparin anticoagulation, ACT",[11]; [18],98%
same,"Percent reversal of standard heparin anticoagulation, FNa",[11]; [18],99%
same,"Percent reversal of standard heparin anticoagulation, FXa",[11]; [18],96%
same,"Percent reversal of standard heparin anticoagulation, TCT",[11]; [18],100%
same,"Percent reversal of standard heparin anticoagulation, ACT","[11]; dogs (n=7), administered over 10 sec, 3 min post-administration",95%
same,"Percent reversal of standard heparin anticoagulation, ACT","[11]; dogs (n=7), administered over 3 min, 3 min post-administration",98%
